Source: patent US10265299B2, “Composition for promoting hair growth and/or hair restoration containing psoralidin” (Amorepacific Corporation, priority 2015, dated 2019)

Legend:
protein kinase Akt = details: cited from earlier work
hair follicle = test: Culture of hair follicle organ and observation of hair follicle cycle; format: cell-based; details: psoralidin 1, 10 μM vs samples without psoralidin treatment; human hair follicle organ culture
Method: For the experiment, a hair transplant was performed to a person with a symptom of partial hair loss. Hair follicle samples of 4 groups each having 15 hair follicles were prepared with remaining follicle samples. William's E medium (Gibco, NY, USA) ) including 500 μl culture medium (2 mM L-glutamine (PAA, Coelbe, Germany), 10 μg/ml insulin, 10 ng/ml hydrocortisone (Sigma, St Louis, Mo.), 0.1% Fungizone (Gibco, NY, USA), 10 μg/ml streptomycin, and 100 U/ml penicillin (Gibco, NY, USA) was dispensed into a 24 well plate (Nunc, Wiesbaden, Germany). Then, the cells were cultured at a density of 5 to 6 cells per well on 500 ul of William's E medium (Gibco, NY, USA).
The cultured cell samples were treated with psoralidin at varying concentrations (0, 1, 10 μM). A sample not treated with psoralidin was used as a control and the medium was changed every 2 to 3 days. After the treatment with psoralidin, the hair follicle was photographed using a stereomicroscope (Dongwon CNS, Korea), and the life cycle of Image hair follicle was classified and schematized.

[1] = system: CRH (Corticotropin-releasing hormone) and corticosterone; details: fed to animals; cited from earlier work
[2] = system: androgen-independent prostate cancer cells; details: in vitro and in vivo; cited from earlier work
NIH3T3 (WNT) cells = test: Measurement of hair follicle stem cell activity (WNT/β-catenin luciferase assay); format: cell-based; details: psoralidin 0, 0.01, 0.1, 1, 10 μM for 24 hours; ONE-Glo reagent
Method: NIH3T3 (WNT) cells, which are hair follicle stem cells, were seeded in a 96 well plates (Nunc, Wiesbaden, Germany) at a density of 10000 cells/well and cultured for 24 hours (5% CO2, 37° C.). Then, psoralidin was treated at varying concentrations (0, 0.01, 0.1, 1, 10 μM) for 24 hours. 100 μl of ONE-Glo reagent (Promega, Madison, Wis., USA) was added to each well of the 96-well plate and reacted for 3 minutes . After the reaction, the activity of stem eel Is was measured with a luminometer Victor (PerkinElmer, Waltham, Mass., USA).

## CC(C)=CCc1cc2c(cc1O)oc(=O)c1c3ccc(O)cc3oc21 [psoralidin]
Protein kinase Akt
  phosphorylation of protein kinase Akt: inhibits the phosphorylation of protein kinase Akt
Hair follicle
  speed of the progression to the catagen stage: significantly delayed
  time remaining in the anagen stage of the hair follicle cycle: remained longer in the anagen stage
[1]
  levels of stress hormones CRH and corticosterone: lower the levels of hormones of CRH (Corticotropin-releasing hormone) and corticosterone
[2]
  growth of androgen-independent prostate cancer cells: inhibiting the growth of androgen-independent prostate cancer cells both in vitro and in vivo
NIH3T3 (WNT) cells
  activity of hair follicle stem cells (luminescence, WNT/β-catenin luciferase): activated
